Assay results: ChEMBL document CHEMBL6121062, “Discovery, Optimization, and Preclinical Pharmacology of EP652, a METTL3 Inhibitor with Efficacy in Liquid and Solid Tumor Models” (J Med Chem, 2025)
Activity calls are given as the source filed them. The calls are words filed in the database; no cut-off is given here.

Columns and labels:
[1] = Toxicity in NSG mouse xenografted with human SK-OV-3 cells assessed as macroscopic adverse events at 30 mg/kg, ip qd treated for 83 days; type: organism-based; settings: in vivo, 1992 h, time 83 day
[2] = biological target: METTL3/METTL14 (Homo sapiens, UniProt Q86U44); experiment: (§1) Inhibition of METTL3/METTL14-mediated m6A mRNA expression in human A549 cells incubated for 24 hrs by LC-MS/MS analysis; type: cell-based
[3] = biological target: METTL3/METTL14 (Homo sapiens) (UniProt Q86U44+Q9HCE5); experiment: as §1; type: cell-based
[4] = Unbound AUC in mouse at 30 mg/kg, ip; type: ADME, organism-based; settings: in vivo
[5] = Lipophilicity, logD of compound in 1-octanol/PBS at pH 7.4 incubated for 24 hrs by HPLC analysis; type: physicochemical
[6] = biological target: T1, Cytochrome P450 1A2 (Homo sapiens, UniProt P05177); experiment: Inhibition of CYP1A2 (unknown origin); type: ADME
T1 sequence (P05177 whole entry): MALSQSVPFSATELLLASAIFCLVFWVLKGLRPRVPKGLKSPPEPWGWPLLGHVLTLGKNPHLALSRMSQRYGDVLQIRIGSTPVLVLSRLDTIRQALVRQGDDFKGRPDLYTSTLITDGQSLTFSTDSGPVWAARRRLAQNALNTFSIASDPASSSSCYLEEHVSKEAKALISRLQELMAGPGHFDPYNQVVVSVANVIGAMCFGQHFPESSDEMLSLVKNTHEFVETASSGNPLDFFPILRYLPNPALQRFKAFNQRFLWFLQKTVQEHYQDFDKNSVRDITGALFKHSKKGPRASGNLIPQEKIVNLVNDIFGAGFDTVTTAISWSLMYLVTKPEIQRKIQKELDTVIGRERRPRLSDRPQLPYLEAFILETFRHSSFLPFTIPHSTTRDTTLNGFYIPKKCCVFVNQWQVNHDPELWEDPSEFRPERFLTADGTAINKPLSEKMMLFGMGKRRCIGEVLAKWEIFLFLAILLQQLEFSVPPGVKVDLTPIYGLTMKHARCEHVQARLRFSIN

[7] = Stability in rat hepatocytes assessed as half life; type: ADME, cell-based, Hepatocyte
[8] = tested on: Kasumi 1; experiment: Induction of apoptosis in human Kasumi 1 cells incubated for 48 hrs by Caspase-Glo 3/7 assay; type: functional, cell-based
[9] = tested on: MV4-11; experiment: Induction of apoptosis in human MV4-11 cells incubated for 48 hrs by Caspase-Glo 3/7 assay; type: functional, cell-based
[10] = tested on: A549; experiment: Antitumor activity against human A549 cells xenografted in NSG mouse assessed as tumor growth inhibition at 30 mg/kg, ip qd treated for 50 days by bioluminescence imaging analysis; type: functional, organism-based; settings: time 50.0 day
[11] = tested on: Calu-6; experiment: Antiproliferative activity against human Calu-6 cells assessed as inhibition of cell viability incubated for 72 hrs by ATPlite assay; type: functional, cell-based; settings: Calu-6, 72 h
[12] = tested on: A549; experiment: Antitumor activity against human A549 cells xenografted in NSG mouse assessed as prolongation of animal survival at 30 mg/kg, ip qd treated for 50 days; type: functional, organism-based; settings: time 50.0 day
[13] = Toxicity in NSG mouse xenografted with human FaDu cells assessed as macroscopic adverse events at 30 mg/kg, ip qd treated for 20 days; type: organism-based; settings: in vivo, 480 h, time 20 day
[14] = tested on: MV4-11; experiment: Antitumor activity against human MV4-11 cells expressing Luc-mCh-Puro xenografted in NSG mouse assessed as inhibition of cancer progression at 30 mg/kg, ip qd treated for 31 days measured upto 40 days by bioluminescence imaging analysis; type: functional, organism-based; settings: time <= 40.0 day
[15] = In vivo inhibition of METTL3/METTL14-mediated m6A mRNA expression in PBMC of rat at 0.3 mg/kg, ip relative to control; type: functional

Chain of METTL3/METTL14 (Q86U44 whole entry): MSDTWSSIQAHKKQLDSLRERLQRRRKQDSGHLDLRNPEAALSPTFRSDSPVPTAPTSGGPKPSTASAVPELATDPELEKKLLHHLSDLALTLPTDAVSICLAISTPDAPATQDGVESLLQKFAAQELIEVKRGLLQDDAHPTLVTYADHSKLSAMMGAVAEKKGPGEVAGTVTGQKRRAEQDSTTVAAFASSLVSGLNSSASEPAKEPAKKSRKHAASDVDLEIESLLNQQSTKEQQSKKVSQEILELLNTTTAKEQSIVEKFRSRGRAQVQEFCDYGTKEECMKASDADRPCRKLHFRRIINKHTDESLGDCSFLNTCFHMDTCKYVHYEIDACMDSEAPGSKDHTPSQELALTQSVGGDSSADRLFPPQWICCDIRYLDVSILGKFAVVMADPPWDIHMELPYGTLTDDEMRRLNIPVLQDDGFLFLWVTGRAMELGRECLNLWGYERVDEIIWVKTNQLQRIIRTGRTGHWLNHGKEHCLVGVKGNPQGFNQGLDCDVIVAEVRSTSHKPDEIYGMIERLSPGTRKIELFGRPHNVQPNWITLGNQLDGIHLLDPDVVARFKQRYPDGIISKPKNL
Chain of METTL3/METTL14 (Q9HCE5 whole entry, further chain): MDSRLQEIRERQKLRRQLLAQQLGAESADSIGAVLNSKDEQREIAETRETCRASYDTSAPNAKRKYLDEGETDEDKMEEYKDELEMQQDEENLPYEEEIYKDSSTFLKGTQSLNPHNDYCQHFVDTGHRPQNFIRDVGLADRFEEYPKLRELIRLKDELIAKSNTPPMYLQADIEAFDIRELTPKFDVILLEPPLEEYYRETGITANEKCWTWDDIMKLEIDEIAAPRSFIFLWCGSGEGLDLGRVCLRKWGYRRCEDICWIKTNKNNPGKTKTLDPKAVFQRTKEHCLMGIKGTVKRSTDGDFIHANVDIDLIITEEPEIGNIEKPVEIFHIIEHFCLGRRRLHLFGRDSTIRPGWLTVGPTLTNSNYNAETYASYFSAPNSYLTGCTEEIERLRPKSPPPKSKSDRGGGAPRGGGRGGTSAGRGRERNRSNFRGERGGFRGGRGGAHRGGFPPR

IC50 [2]: 7 nM
inhibition [3]: Dose-dependent-effect
fAUC [4]: 175.8 µM·min
logD at 24 h [5]: 1.16
IC50 [6]: > 100000 nM
half-life [7]: > 4 h
IC50 [11]: 18 nM
Structure (SMILES): C[C@@H](n1cc(-c2cncc(N(C)C)c2)nn1)n1ccc(N2CCC[C@@H](NCC3CC3)C2)cc1=O
Activity [1]: Non-toxic
Activity [8]: Active
Activity [9]: Active
inhibition [10]: Active
Activity [12]: Active
Activity [13]: Non-toxic
inhibition [14]: Active
Emax at 0.3 mg/kg [15]: ~75%
